Experimental data published in patent US20260199351A1, “TRIAZOLE COMPOUNDS, PREPARATION METHODS AND MEDICINAL USES THEREOF” (Jiangsu Hengrui Pharmaceuticals Co., Ltd., priority 2022, published 2026).

Experiments:
[1] = biological target: T1, WRN helicase (His-WRN527-072) (Homo sapiens, UniProt Q14191); experiment: WRN Helicase Assay (fluorescent forked DNA); type: biochemical; conditions: 30 min pre-incubation, 60 min reaction at room temperature
T1 construct: in-house produced His-WRN527-072 was used; His (N); made in house
Method: To assess the inhibition properties of the invented compounds on WRN helicase activity, a fluorescent assay using forked DNA was set up. In the helicase assay, in-house produced His-WRN527-072 was used. […] 2.5-fold serial dilution of test compounds were prepared for 7 gradient points with DMSO, and then 1.5 μl of each concentration were added to 48.5 μl of assay buffer (25 mM Tris-HCl (pH 8.0), 50 mM NaCl, 2 mM MgCl2, 1 mM DTT, 0.0500 Tween-20, and 2.5 μg/ml BSA) for further dilution. […] Each concentration of the compounds was added as triplicate in the plate. Controls were included in the test to validate the assay. […] Forked DNA and ATP were diluted into 300 nM and 6 mM, respectively, with assay buffer. To initiate the reaction, 5 μl of the dsDNA and ATP solution were added to the assay plate. After 60 minutes room temperature incubation, the plate was transferred to Victor Nivo multimode plate reader (Perkin Elmer, Waltham, MA) and the fluorescence outputs were monitored. GraphPad Prism 9 (GraphPad Software, San Diego, CA) was used to carry out the dose-response curves, deriving IC50s.

SW48 = SW48 cell assay; type: cell-based; conditions: Homo sapiens
WRN ATPase = biological target: T2, WRN ATPase (Homo sapiens, UniProt Q14191); experiment: WRN ATPase Assay (ADP-Glo); type: biochemical; conditions: DNA dependent WRN ATPase activity
T2 construct: in-house produced His-WRN527-072 was used; His (N); made in house
Method: WRN ATPase Assay To evaluate the inhibition properties of the invented compounds on DNA dependent WRN ATPase activity, an ATPase assay using ADP-Glo assay kit (Promega, Madison, WI) was established. In the ATPase assay, the same WRN protein and DNA substrate as described in helicase assay were used. The serial dilution of the compounds in DMSO was same as helicase assay. […] All the test wells were set as triplicate. Afterwards, 2.5 μl of assay buffer containing 400 nM DNA substrate and 4 mM ATP were added to each well and incubated for 60 minutes. The protein-free control (maximal inhibition) and no-compound control (no inhibition) were included in the test. To stop the reaction and deplete the excessive ATP, 10 μl of the ADP-Glo™ Reagent from the assay kit were added and incubated for 40 minutes. Then, 20 μl of the ATP detection reagent was added. After 30 minutes incubation, the luminescence was measured using Victor Nivo multimode plate reader (Perkin Elmer, Waltham, MA). Dose-response curves, spanning IC50s, were generated by GraphPad Prism 9 (GraphPad Software, San Diego, CA).

T1 sequence (Q14191 527-1072 limits assumed): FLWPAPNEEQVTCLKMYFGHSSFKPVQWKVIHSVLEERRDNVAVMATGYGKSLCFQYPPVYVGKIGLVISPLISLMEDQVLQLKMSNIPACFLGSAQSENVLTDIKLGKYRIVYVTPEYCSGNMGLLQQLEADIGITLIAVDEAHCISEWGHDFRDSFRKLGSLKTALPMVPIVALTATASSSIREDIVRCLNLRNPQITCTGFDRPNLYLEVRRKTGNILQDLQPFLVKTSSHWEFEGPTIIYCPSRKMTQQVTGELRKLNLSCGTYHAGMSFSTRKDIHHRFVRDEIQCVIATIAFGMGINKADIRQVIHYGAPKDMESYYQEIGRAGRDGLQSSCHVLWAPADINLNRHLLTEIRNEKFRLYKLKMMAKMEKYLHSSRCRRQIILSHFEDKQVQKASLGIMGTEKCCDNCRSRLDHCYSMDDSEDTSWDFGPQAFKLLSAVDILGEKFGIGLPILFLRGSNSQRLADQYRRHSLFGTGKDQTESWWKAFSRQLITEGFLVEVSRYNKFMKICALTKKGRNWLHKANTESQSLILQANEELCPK
T2 sequence (Q14191 527-1072 limits assumed): as above

Question: `CCc1c(N2C3CC2CN(C(=O)c2ncnc(C)c2O)C3)c(=O)n2nc(C3=CCOCC3)nc2n1CC(=O)Nc1ccc(C(F)(F)F)cc1Cl` [Compound 1] was tested. Which IC50 [1] did it give?
Answer: 48000 nM

Question: How did the IC50 (SW48) turn out when `CCc1c(N2CC3CC2CN3C(=O)c2ncnc(C)c2O)c(=O)n2nc(C3=CCOCC3)nc2n1CC(=O)Nc1ccc(C(F)(F)F)cc1Cl` (centres unmarked) [Compound 2] was run?
Answer: 5740 nM

Question: What about the IC50 [1] of the same molecule?
Answer: 6.4 nM

Question: `CCc1c(N2CC3CCC(C2)N3C(=O)c2ncccc2O)c(=O)n2nc(C3=CCOCC3)nc2n1CC(=O)Nc1ccc(C(F)(F)F)cc1Cl` [Compound 4] was tested. Which IC50 (SW48) did it give?
Answer: 1350 nM

Question: And the IC50 [1]?
Answer: 4.5 nM

Question: With `CCc1c(N2CC3CCC(C2)N3C(=O)c2ncccc2O)c(=O)n2nc(C3=CCOCC3)nc2n1CC(=O)Nc1ccc(C(F)(F)F)nc1Cl` [Compound 8] as the molecule, how does the IC50 (SW48) read?
Answer: 1630 nM

Question: What about the IC50 [1] of the same molecule?
Answer: 5.9 nM

Question: What does the source list for `CCc1c(N2CC3CCC(C2)N3C(=O)c2ncnc(C)c2O)c(=O)n2nc(C3=CCOCC3)nc2n1CC(=O)Nc1ccc(C(F)(F)F)nc1Cl` [Compound 15]?
Answer: IC50 (SW48): 3490 nM; IC50 [1]: 9.2 nM

Question: For `CCc1c(N2[C@@H]3CC[C@H]2CN(C(=O)c2ncnc(C)c2O)C3)c(=O)n2nc(C3=CCOCC3)nc2n1CC(=O)Nc1ccc(C(F)(F)F)cc1C` [Compound 17], which IC50 (SW48) is on record?
Answer: 183 nM

Question: What about the IC50 [1] of the same molecule?
Answer: 3.5 nM

Question: How did the IC50 (SW48) turn out when `CCc1c(N2CCCN(C(=O)c3ncnc(C)c3O)CC2)c(=O)n2nc(C3=CCOCC3)nc2n1CC(=O)Nc1ccc(C(F)(F)F)cc1Cl` [Compound 19] was run?
Answer: 818 nM

Question: And the IC50 [1]?
Answer: 5.1 nM

Question: Which results are given for `CCc1c(N2CCC(NC(=O)c3ncnc(C)c3O)C2)c(=O)n2nc(C3=CCOCC3)nc2n1CC(=O)Nc1ccc(C(F)(F)F)cc1C` (centres unmarked) [Compound 23]?
Answer: IC50 (SW48): 1870 nM; IC50 [1]: 6.3 nM

Question: `CCc1c(N2CCN(Cc3cccn(C)c3=O)C(=O)C2)c(=O)n2nc(C3=CCOCC3)nc2n1CC(=O)Nc1ccc(C(F)(F)F)cc1C` [Compound 68] was tested. Which IC50 [1] did it give?
Answer: 5000 nM

Question: Which IC50 (SW48) does the source give for `CCc1c(N2CC3CC(C(=O)c4ncnc(C)c4O)C(C2)N3)c(=O)n2nc(C3=CCOCC3)nc2n1CC(=O)Nc1ccc(C(F)(F)F)cc1Cl` (centres unmarked) [Compound 186] here?
Answer: 716 nM

Question: And the IC50 [1]?
Answer: 2.7 nM

Question: What about the IC50 (WRN ATPase) of the same molecule?
Answer: 13 nM

Question: `CCc1c(N2CC3CC(C2)N3C(=O)c2ncnc(C)c2O)c(=O)n2nc(C3=CCOCC3)nc2n1CC(=O)Nc1ccc(C(F)(F)F)cc1C` [Compound 187, 2-(2-(3,6-dihydro-2H-pyran-4-yl)-5-ethyl-6-(6-(5-hydroxy-6-methylpyrimidine-4-carbonyl)-3,6-diazabicyclo[3.1.1]heptan-3-yl)-7-oxo-[1,2,4]triazolo [1,5-a]pyrimidin-4(7H)-yl)-N-(2-methyl-4-(trifluoromethyl)phenyl)acetamide] was tested. Which IC50 (SW48) did it give?
Answer: 4500 nM

Question: What about the IC50 [1] of the same molecule?
Answer: 8.6 nM

Question: `CCc1c(N2C3CCC2CN(C(=O)c2ncccc2O)C3)c(=O)n2nc(C3=CCOCC3)nc2n1CC(=O)Nc1ccc(C(F)(F)F)cc1Cl` [Compound 189, N-(2-chloro-4-(trifluoromethyl)phenyl)-2-(2-(3,6-dihydro-2H-pyran-4-yl)-5-ethyl-6-(3-(3-hydroxypicolinoyl)-3,8-diazabicyclo[3.2.1]octan-8-yl)-7-oxo-[1,2,4]triazolo[1,5-a]pyrimidin-4(7H)-yl)acetamide] was tested. Which IC50 (SW48) did it give?
Answer: 1110 nM

Question: And the IC50 [1]?
Answer: 4.6 nM

Question: How did the IC50 (SW48) turn out when `CCc1c(C2=CCN(C(=O)c3ncnc(C)c3O)CCC2)c(=O)n2nc(C3=CCOCC3)nc2n1CC(=O)Nc1ccc(C(F)(F)F)cc1Cl` [Compound 190, N-(2-chloro-4-(trifluoromethyl)phenyl)-2-(2-(3,6-dihydro-2H-pyran-4-yl)-5-ethyl-6-(1-(5-hydroxy-6-methylpyrimidine-4-carbonyl)-2,5,6,7-tetrahydro-1H-azepin-4-yl)-7-oxo-[1,2,4]triazolo[1,5-a]pyrimidin-4(7H)-yl)acetamide] was run?
Answer: 2240 nM

Question: What about the IC50 [1] of the same molecule?
Answer: 5.2 nM

Question: How did the IC50 [1] turn out when `CCc1c(N2CCN(C(=O)c3ncnc(C)c3O)CC2)c(=O)n2nc(C3C4CC(OC)CC43)nc2n1CC(=O)Nc1ccc(C(F)(F)F)cc1Cl` (centres unmarked) [Compound 191, N-(2-chloro-4-(trifluoromethyl)phenyl)-2-(5-ethyl-6-(4-(5-hydroxy-6-methylpyrimidine-4-carbonyl)piperazin-1-yl)-2-(3-methoxybicyclo[3.1.0]hexan-6-yl)-7-oxo-[1,2,4]triazolo[1,5-a]pyrimidin-4(7H)-yl)acetamide] was run?
Answer: 3.7 nM

Question: Which IC50 (SW48) does the source give for `CCc1c(N2CCN(C(=O)c3ncnc(C)c3O)CC2)c(=O)n2nc(C3C4COCC43)nc2n1CC(=O)Nc1ccc(C(F)(F)F)cc1Cl` (centres unmarked) [Compound 192, 2-(2-(3-oxabicyclo[3.1.0]hexan-6-yl)-5-ethyl-6-(4-(5-hydroxy-6-methylpyrimidine-4-carbonyl)piperazin-1-yl)-7-oxo-[1,2,4]triazolo[1,5-a]pyrimidin-4(7H)-yl)-N-(2-chloro-4-(trifluoromethyl)phenyl)acetamide] here?
Answer: 4180 nM

Question: What about the IC50 [1] of the same molecule?
Answer: 8.4 nM

Question: How did the IC50 [1] turn out when `CCc1c(C2=CCN(C(=O)c3ncnc(C)c3O)CCC2)c(=O)n2nc(C3CCOCC3)nc2n1CC(=O)Nc1ccc(C(F)(F)F)cc1Cl` [Compound 196, N-(2-chloro-4-(trifluoromethyl)phenyl)-2-(5-ethyl-6-(1-(5-hydroxy-6-methylpyrimidine-4-carbonyl)-2,5,6,7-tetrahydro-1H-azepin-4-yl)-7-oxo-2-(tetrahydro-2H-pyran-4-yl)-[1,2,4]triazolo[1,5-a]pyrimidin-4(7H)-yl)acetamide] was run?
Answer: 1280 nM

Question: For `CCc1c(N2CCN(C(=O)c3ncccc3O)CC2)c(=O)n2nc(C3=CCOCC3)nc2n1CC(=O)Nc1ccc(Cl)c(C(F)(F)F)c1` [Compound 197], which IC50 (SW48) is on record?
Answer: 28 nM

Question: What about the IC50 [1] of the same molecule?
Answer: 3.8 nM

Question: What does the source list for `CCc1c(N2CCN(C(=O)c3ncccc3O)CC2)c(=O)n2nc(C3=CCOCC3)nc2n1CC(=O)Nc1ccc(OC(F)(F)F)cc1` [Compound 198]?
Answer: IC50 (SW48): 129 nM; IC50 [1]: 2.3 nM

Question: With `CCc1c(N2CC3CCC(C2)N3C(=O)c2ncccc2O)c(=O)n2nc(C3=CCOCC3)nc2n1CC(=O)Nc1ccc(Cl)c(C(F)(F)F)c1` [Compound 199] as the molecule, how does the IC50 (SW48) read?
Answer: 3350 nM

Question: And the IC50 [1]?
Answer: 9.3 nM

Question: With `CCc1c(N2CC3CCC(C2)N3C(=O)c2ncccc2O)c(=O)n2nc(C3=CCOCC3)nc2n1CC(=O)Nc1ccc(OC(F)(F)F)cc1` [Compound 200] as the molecule, how does the IC50 (SW48) read?
Answer: 7240 nM

Question: What about the IC50 [1] of the same molecule?
Answer: 4.4 nM

Question: What does the source list for `CCc1c(N2CC3CCC(C2)N3C(=O)c2nccc(Cl)c2O)c(=O)n2nc(C3=CCOCC3)nc2n1CC(=O)Nc1ccc(C(F)(F)F)nc1Cl` [Compound 201]?
Answer: IC50 (SW48): 802 nM; IC50 [1]: 7.3 nM

Question: How did the IC50 (SW48) turn out when `CCc1c(N2CC3CCC(C2)N3C(=O)c2ncccc2O)c(=O)n2nc(C3=CCC(OC)CC3)nc2n1CC(=O)Nc1ccc(C(F)(F)F)cc1C` (centres unmarked) [Compound 202, 2-(5-ethyl-6-(8-(3-hydroxypicolinoyl)-3,8-diazabicyclo[3.2.1]octan-3-yl)-2-(4-methoxycyclohex-1-en-1-yl)-7-oxo-[1,2,4]triazolo[1,5-a]pyrimidin-4(7H)-yl)-N-(2-methyl-4-(trifluoromethyl)phenyl)acetamide] was run?
Answer: 1040 nM

Question: And the IC50 [1]?
Answer: 7 nM

Question: With `CCc1c(N2CC3CCC(C2)N3C(=O)c2ncccc2O)c(=O)n2nc(C3=CCN(CC(F)F)CC3)nc2n1CC(=O)Nc1ccc(C(F)(F)F)cc1C` [Compound 203, 2-(2-(1-(2,2-difluoroethyl)-1,2,3,6-tetrahydropyridin-4-yl)-5-ethyl-6-(8-(3-hydroxypicolinoyl)-3,8-diazabicyclo[3.2.1]octan-3-yl)-7-oxo-[1,2,4]triazolo[1,5-a]pyrimidin-4(7H)-yl)-N-(2-methyl-4-(trifluoromethyl)phenyl)acetamide] as the molecule, how does the IC50 (SW48) read?
Answer: 967 nM

Question: And the IC50 [1]?
Answer: 8.7 nM

Question: What does the source list for `CCc1c(N2CC3CCC(C2)N3C(=O)c2ncccc2O)c(=O)n2nc(-c3cnn(C)c3)nc2n1CC(=O)Nc1ccc(C(F)(F)F)cc1C` [Compound 204]?
Answer: IC50 (SW48): 1790 nM; IC50 [1]: 7.1 nM

Question: Which results are given for `CCc1c(N2CC3CC(F)C(C2)N3C(=O)c2ncccc2O)c(=O)n2nc(C3=CCOCC3)nc2n1CC(=O)Nc1ccc(C(F)(F)F)cc1C` (centres unmarked) [Compound 205]?
Answer: IC50 (SW48): 2370 nM; IC50 [1]: 10.9 nM

Question: How did the IC50 (SW48) turn out when `CCc1c(N2C3CCC2CN(C(=O)c2ncccc2O)C3)c(=O)n2nc(C3=CCOCC3)nc2n1CC(=O)Nc1ccc(C(F)(F)F)cc1C` [Compound 206] was run?
Answer: 1140 nM

Question: What about the IC50 [1] of the same molecule?
Answer: 3.6 nM

Question: Which IC50 (SW48) does the source give for `CCc1c(N2C3CCC2CN(C(=O)c2ncccc2O)C3)c(=O)n2nc(-c3cnn(C)c3)nc2n1CC(=O)Nc1ccc(C(F)(F)F)cc1C` [Compound 207] here?
Answer: 1140 nM

Question: What about the IC50 [1] of the same molecule?
Answer: 5.1 nM

Question: Which results are given for `CCc1c(N2C3CCC2CN(C(=O)c2ncnc(C)c2O)C3)c(=O)n2nc(-c3cnn(C)c3)nc2n1CC(=O)Nc1ccc(C(F)(F)F)cc1C` [Compound 208]?
Answer: IC50 (SW48): 440 nM; IC50 [1]: 6.2 nM
